Source: paper PMC6912361, “Systemic Toxicity Reported for CDK8/19 Inhibitors CCT251921 and MSC2530818 Is Not Due to Target Inhibition” (Cells, 2019)
Where “and” joins values, the source holds several entries; their conditions need not be identical. Equal values may be shown once. Read-outs that look alike come from different tables or passages of the source. Values belong to the compound of their own block, whether it stands above or below them.

Legend:
CDK19 [1] = molecular target: T1, CDK19 (Homo sapiens, UniProt Q9BWU1); assay: Cell-based QPCR assay of CDK8/19-dependent gene expression, HEK293 CDK8 single-knockout (8KO) cells; design: CDK8 single-knockout (8KO); endogenous in cells; host or cells: HEK293 CDK8 knockout (8KO); details: 8KO, HEK293 8KO, 1 h pre-treatment, then 10 ng/mL TNFα 2 h
Target sequence in this assay (Q9BWU1 whole entry): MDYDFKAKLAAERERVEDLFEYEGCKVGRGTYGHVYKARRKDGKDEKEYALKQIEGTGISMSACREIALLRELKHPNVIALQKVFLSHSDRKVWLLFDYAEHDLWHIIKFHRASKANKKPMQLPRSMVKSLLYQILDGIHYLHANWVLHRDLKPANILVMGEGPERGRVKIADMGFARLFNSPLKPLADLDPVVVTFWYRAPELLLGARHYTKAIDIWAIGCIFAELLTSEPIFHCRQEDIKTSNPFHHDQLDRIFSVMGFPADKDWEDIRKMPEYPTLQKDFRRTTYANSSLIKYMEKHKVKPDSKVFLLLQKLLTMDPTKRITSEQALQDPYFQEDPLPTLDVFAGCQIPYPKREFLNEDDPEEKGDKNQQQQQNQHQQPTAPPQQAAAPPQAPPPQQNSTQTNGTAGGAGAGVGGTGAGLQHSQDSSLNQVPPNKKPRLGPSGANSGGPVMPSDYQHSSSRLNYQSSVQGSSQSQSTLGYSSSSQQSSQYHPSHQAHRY
Target sequence in this assay (P24863 whole entry partner): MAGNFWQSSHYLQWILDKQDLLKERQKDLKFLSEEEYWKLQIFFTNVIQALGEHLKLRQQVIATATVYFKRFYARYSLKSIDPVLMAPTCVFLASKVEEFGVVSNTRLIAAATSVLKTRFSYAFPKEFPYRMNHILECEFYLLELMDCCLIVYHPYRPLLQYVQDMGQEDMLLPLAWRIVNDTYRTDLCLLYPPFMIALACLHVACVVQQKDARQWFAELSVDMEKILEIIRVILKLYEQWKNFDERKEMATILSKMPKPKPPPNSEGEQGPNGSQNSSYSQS
Description: (§5) CDK8/CDK19 single knockout and double knockout derivatives of human embryonic kidney (HEK) 293 cells (ATCC CRL-1573) were generated as previously described [18]. All cells were cultured in DMEM (high-glucose) media supplemented with 10% fetal bovine serum (FBS) and Penicillin-Streptomycin-Glutamine (1×) at 37 °C with 5% CO2 and routinely confirmed to be free of mycoplasma.
(§6) Total RNA was extracted using RNAeasy Mini Kit (Qiagen, Germantown, MD, USA) and 1 µg of total RNA was used to generate cDNA using iScript cDNA synthesis kit (Bio-Rad Laboratories, Hercules, CA, USA). Gene expression was quantified using iTaq Universal SYBR green super mix using CFX384 Real-Time System (Bio-Rad).
(§7) The IC50 values for different inhibitors in inhibiting CDK8/19-dependent gene expression were calculated using a three-parameter least square (ordinary) fitting method with GraphPad Prism 7.0 (GraphPad Software, San Diego, CA, USA). The Kruskal–Wallis non-parametric ANOVA was used to compare gene expression levels under no-inhibitor conditions between wild-type cells and knockout derivatives (8KO, 19KO and dKO) with GraphPad Prism 7.0.
(§8) Cells were pre-treated with different concentrations of CDK8/19 inhibitors for 1 h and then 10 ng/mL TNFα, an inducer of transcription factor NFκB, which is potentiated by CDK8/19 [5], was added for 2 h before RNA extraction. QPCR was carried out to quantify CDK8/19-regulated expression of NFκB-inducible genes CXCL1 and CXCL8 and the basal expression of MYC.

GSK3A = molecular target: T2, GSK3A (Homo sapiens, UniProt P49840); assay: KdELECT Kd determination, GSK3A; details: 11-point 3-fold serial dilution, duplicate; read-out: Kd for the inhibition of nucleotide binding, GSK3A
T2 construct: purchased DiscoverX
Description: (§1) The screening platform employs an active site-directed competition binding assay to quantitatively measure interactions between test compounds and targeting kinases. […] To determine dissociation constants (Kds) of compounds on different targets, an 11-point 3-fold serial dilution of each test compound was tested in independent duplicate assays.
(§2) This assay has been previously used with many CDK8/19 inhibitors, including cortistatin A and its equipotent analog dCA [20, 21]; 15w.

dogs = details: cited from earlier work
CDK8/19 = assay: Cell-based QPCR assay of CDK8/19-dependent gene expression, HEK293 parental (WT) cells; design: species or system human
Description: All cells were cultured in DMEM (high-glucose) media supplemented with 10% fetal bovine serum (FBS) and Penicillin-Streptomycin-Glutamine (1×) at 37 °C with 5% CO2 and routinely confirmed to be free of mycoplasma.
as §6
The IC50 values for different inhibitors in inhibiting CDK8/19-dependent gene expression were calculated using a three-parameter least square (ordinary) fitting method with GraphPad Prism 7.0 (GraphPad Software, San Diego, CA, USA).
as §8

CDK8 [2] = molecular target: T3, CDK8 (Homo sapiens, UniProt P49336); assay: KdELECT Kd determination, CDK8; assay type: binding; design: purchased DiscoverX
Description: (§3) To determine dissociation constants (Kds) of compounds on different targets, an 11-point 3-fold serial dilution of each test compound was tested in independent duplicate assays.
Target sequence in this assay (P49336 whole entry): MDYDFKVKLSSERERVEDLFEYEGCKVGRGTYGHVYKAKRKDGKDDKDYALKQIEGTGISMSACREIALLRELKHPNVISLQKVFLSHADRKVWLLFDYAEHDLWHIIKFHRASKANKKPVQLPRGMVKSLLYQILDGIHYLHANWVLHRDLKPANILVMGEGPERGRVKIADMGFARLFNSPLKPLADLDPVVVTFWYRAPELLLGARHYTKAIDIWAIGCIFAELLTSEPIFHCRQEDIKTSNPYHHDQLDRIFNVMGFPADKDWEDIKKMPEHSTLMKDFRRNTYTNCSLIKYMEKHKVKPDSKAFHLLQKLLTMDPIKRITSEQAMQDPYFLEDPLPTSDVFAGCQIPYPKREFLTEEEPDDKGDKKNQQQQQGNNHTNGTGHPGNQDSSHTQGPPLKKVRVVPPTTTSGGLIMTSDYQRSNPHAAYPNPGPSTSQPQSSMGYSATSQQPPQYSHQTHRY

[3] = design: method as in PMID 27935476; details: colon cancer and leukemia mouse xenograft models; cited from earlier work
GSK3β = molecular target: T4, GSK3β (Homo sapiens, UniProt P49841); assay: ADP-Glo Kinase Assay, GSK3β kinase activity; assay type: biochemical; details: 25 μM ATP, 60 min, room temperature
T4 construct: purchased Promega
Description: Effects of different compounds on GSK3β kinase activity were evaluated using ADP-Glo^TM Kinase Assay kit and GSK3β Kinase Enzyme System (Promega, Madison, WI, USA). Kinase reactions were carried out at room temperature for 60 min. Each reaction contained 1 ng GSK3β enzyme, 25 μM ATP, 0.2 μg/μL GSK3 substrate and test compounds at different concentrations. Equal volume of ADP-Glo reagent was then added to kinase reaction and incubated at room temperature for 40 min, followed by the addition of Kinase Detection Reagent and incubation at room temperature for another 20 min. Bioluminescence signals were measured in 384-well plates using ChemiDoc Touch™ (Bio-Rad) and ImageLab software (Bio-Rad, Version 5.2.1 build 11). Effects of inhibitors were presented as relative kinase activity, calculated from […].

CDK8 [4] = molecular target: T3, CDK8; assay: Cell-based QPCR assay of CDK8/19-dependent gene expression, HEK293 CDK19 single-knockout (19KO) cells; design: CDK19 single-knockout (19KO); endogenous in cells; host or cells: HEK293 CDK19 knockout (19KO); details: HEK293 19KO, 1 h pre-treatment, then 10 ng/mL TNFα 2 h
Target sequence in this assay (P49336 whole entry): as above
Target sequence in this assay (P24863 whole entry partner): as the sequence (P24863 whole entry partner) above
Description: as §5, §6, §7, §8

CDK19 [5] = molecular target: T1, CDK19; assay: KdELECT Kd determination, CDK19; assay type: binding; design: purchased DiscoverX
Description: as §3
Target sequence in this assay (Q9BWU1 whole entry): as the sequence (Q9BWU1 whole entry) above

rats = details: cited from earlier work
[6] = system: non-dechorionated embryos of zebrafish TU strain; assay: Zebrafish toxicity assay, non-dechorionated embryos (TU strain); assay type: in vivo; details: all the tested concentrations (0.5 μM, 1 μM and 2 μM); 3-5 days
Description: The toxicity studies in non-dechorionated embryos of zebrafish TU strain were approved by the Institutional Animal Care and Use Committee of the University of South Carolina. The studies were conducted in sterile 24-well plates with one 24 hpf embryo in each well in a 1 mL volume of egg water. For each plate, 6 wells were treated with vehicle control and the other 18 wells (i.e., biological replicates) were treated with different CDK8/19 inhibitors at different concentrations. […] All the data from the plates with at least five healthy vehicle-treated embryos on day 5 were compiled together for final data analysis.

[7] = system: dechorionated zebrafish embryos (Danio rerio, AB strain); assay: Zebrafish toxicity assay, mechanically dechorionated embryos (AB strain); assay type: in vivo; details: 1 μM; starting after 72 hpt
Description: The toxicity screen using dechorionated zebrafish embryos (Danio rerio, AB strain) was performed by Arkana Laboratories, Little Rock, AR, as a service. The toxicity of different CDK8/19 inhibitors was evaluated in sterile 96-well plates with U-shaped bottoms. 12 wells (i.e., biological replicates) per test chemical and the vehicle control (0.1% DMSO) were used and the experiment was performed in triplicate. Treatment was performed via addition of 20 µL of 10× concentrations of each tested compound in 1% DMSO-containing egg water to each well containing one 24 hpf (hours post fertilization) mechanically-dechorionated embryo in 180 µL volume of egg water (i.e., 0.1% final DMSO concentration). The fish embryos cultured at 28.5 °C were examined at 24, 48, 72 and 96 h post treatment (hpt) and scored as “healthy”, “abnormal” or “dead”. Phenotypes observed and assessed as abnormal included: cardiac edema (intermediate and severe stages), overall edema, enlarged head, malformation of the eyes, curved body axis, shortened body axis and malformation of the tail. […] Positive control 3,4-dichloroaniline (3,4-DCA) was tested at 8 mg/L.

GSK3B = molecular target: T5, GSK3B (Homo sapiens, UniProt P49841); assay: KdELECT Kd determination, GSK3B; details: 11-point 3-fold serial dilution, duplicate; read-out: Kd for the inhibition of nucleotide binding, GSK3B
T5 construct: purchased DiscoverX
Description: as §3

[8] = system: STAT1 S727 phosphorylation; design: method as in patent application US 2017/0115308A1; details: ref patent application US 2017/0115308A1; cited from earlier work
[9] = system: STAT1 S727 phosphorylation; assay: Basal STAT1 S727 phosphorylation in rat neurons in culture; assay type: cell-based; details: not shown
[10] = system: STAT1 S727 phosphorylation; assay: Western blot of STAT1 S727 phosphorylation in 293-WT cells; assay type: cell-based, human; details: 1 μM
Description: (§4) Cells were cultured in 60-mm dishes and treated under different conditions before being lysed in RIPA lysis buffer with protease/phosphatase inhibitor cocktail. The protein concentration of extracts was determined using the DC protein assay (Bio-Rad Laboratories). Protein samples (50 μg) were resolved on 4–12% Express-Plus PAGE gels in Tris-MOPS (SDS) running buffer (GenScript, Piscataway, NJ, USA), transferred to PVDF membranes and incubated at 4 °C overnight with primary antibodies STAT1 (sc-592, Santa Cruz Biotechnology, Dallas, TX, USA) and pSTAT1-Ser727 (#8826, Cell Signaling Technology, Danvers, MA, USA) followed by anti-rabbit (NA934, GE Healthcare, Chicago, IL, USA) secondary antibodies. Bands were visualized with Western Lighting Plus ECL detection reagent (Perkin Elmer, Waltham, MA, USA) using ChemiDoc Touch™ (Bio-Rad). Images were analyzed using ImageLab (Bio-Rad) and ImageJ (version 1.52p) software for protein signal quantification.

[11] = system: STAT1 S727 phosphorylation; assay: Western blot of STAT1 S727 phosphorylation in NIH 3T3 cells; assay type: cell-based, murine; details: 1 μM
Description: as §4

STK16 = molecular target: T6, STK16 (Homo sapiens, UniProt O75716); assay: KdELECT Kd determination, STK16; details: 11-point 3-fold serial dilution, duplicate; read-out: Kd for the inhibition of nucleotide binding, STK16
T6 construct: purchased DiscoverX
Description: as §1, §2

JNK1 (MAPK8) = molecular target: T7, JNK1 (MAPK8) (Homo sapiens, UniProt P45983); assay: KdELECT Kd determination, JNK1; details: 11-point 3-fold serial dilution, duplicate; read-out: Kd for the inhibition of nucleotide binding, JNK1 (MAPK8)
T7 construct: purchased DiscoverX
Description: as §1, §2

PIKFYVE = PIKFYVE (Homo sapiens, UniProt Q9Y2I7); assay: KdELECT Kd determination, PIKFYVE; design: purchased DiscoverX; details: 11-point 3-fold serial dilution, duplicate; read-out: Kd for the inhibition of nucleotide binding, PIKFYVE
Description: as §1, §2

MAP4K2 = molecular target: T8, MAP4K2 (Homo sapiens, UniProt Q12851); assay: KdELECT Kd determination, MAP4K2; details: 11-point 3-fold serial dilution, duplicate; read-out: Kd for the inhibition of nucleotide binding, MAP4K2
T8 construct: purchased DiscoverX
T8 sequence (Q12851 1-820): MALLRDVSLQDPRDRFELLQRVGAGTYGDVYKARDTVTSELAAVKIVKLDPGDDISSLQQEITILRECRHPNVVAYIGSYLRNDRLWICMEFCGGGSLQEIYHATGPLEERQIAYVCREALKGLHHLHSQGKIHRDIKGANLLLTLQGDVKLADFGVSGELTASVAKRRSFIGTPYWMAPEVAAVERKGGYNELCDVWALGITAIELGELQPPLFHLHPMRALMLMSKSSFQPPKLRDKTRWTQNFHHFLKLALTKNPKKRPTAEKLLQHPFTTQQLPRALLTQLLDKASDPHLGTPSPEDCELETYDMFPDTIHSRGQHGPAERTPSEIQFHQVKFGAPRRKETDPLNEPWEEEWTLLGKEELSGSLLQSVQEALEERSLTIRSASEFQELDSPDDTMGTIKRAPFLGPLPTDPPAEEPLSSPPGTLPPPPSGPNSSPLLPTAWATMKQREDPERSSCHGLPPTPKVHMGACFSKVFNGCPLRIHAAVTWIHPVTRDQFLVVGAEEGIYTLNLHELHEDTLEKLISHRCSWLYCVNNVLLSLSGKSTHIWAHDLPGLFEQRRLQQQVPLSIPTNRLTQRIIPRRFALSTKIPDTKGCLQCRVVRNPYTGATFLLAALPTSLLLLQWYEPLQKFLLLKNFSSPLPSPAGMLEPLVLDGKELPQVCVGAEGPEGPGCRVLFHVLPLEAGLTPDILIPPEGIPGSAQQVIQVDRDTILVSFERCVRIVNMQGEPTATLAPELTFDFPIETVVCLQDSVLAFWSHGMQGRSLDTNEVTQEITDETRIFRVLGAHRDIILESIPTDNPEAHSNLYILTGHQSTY
Description: as §1, §2

T4 sequence (P49841 whole entry): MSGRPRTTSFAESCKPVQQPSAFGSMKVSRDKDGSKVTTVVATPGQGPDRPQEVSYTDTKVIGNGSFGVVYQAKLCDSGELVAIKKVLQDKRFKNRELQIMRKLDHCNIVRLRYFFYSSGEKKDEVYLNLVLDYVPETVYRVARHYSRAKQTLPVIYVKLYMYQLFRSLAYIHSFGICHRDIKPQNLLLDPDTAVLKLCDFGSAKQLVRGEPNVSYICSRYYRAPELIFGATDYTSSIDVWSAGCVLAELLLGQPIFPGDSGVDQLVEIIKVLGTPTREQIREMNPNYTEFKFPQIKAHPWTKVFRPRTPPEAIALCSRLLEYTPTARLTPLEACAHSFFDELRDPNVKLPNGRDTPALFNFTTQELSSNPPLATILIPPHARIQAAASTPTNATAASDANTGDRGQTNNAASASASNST
T2 sequence (P49840 whole entry): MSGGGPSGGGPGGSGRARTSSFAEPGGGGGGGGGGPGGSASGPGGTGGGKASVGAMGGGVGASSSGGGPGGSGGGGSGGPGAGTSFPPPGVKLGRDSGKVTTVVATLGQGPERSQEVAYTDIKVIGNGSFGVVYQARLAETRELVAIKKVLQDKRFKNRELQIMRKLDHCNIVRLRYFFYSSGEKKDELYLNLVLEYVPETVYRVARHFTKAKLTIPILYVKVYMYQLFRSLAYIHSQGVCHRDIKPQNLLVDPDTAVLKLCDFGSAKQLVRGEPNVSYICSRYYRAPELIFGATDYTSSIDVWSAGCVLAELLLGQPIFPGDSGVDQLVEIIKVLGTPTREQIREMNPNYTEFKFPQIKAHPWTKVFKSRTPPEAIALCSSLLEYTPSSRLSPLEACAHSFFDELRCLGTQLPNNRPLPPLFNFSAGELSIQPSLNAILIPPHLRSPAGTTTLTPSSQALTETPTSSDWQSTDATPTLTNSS
PIKFYVE, sequence (Q9Y2I7 whole entry): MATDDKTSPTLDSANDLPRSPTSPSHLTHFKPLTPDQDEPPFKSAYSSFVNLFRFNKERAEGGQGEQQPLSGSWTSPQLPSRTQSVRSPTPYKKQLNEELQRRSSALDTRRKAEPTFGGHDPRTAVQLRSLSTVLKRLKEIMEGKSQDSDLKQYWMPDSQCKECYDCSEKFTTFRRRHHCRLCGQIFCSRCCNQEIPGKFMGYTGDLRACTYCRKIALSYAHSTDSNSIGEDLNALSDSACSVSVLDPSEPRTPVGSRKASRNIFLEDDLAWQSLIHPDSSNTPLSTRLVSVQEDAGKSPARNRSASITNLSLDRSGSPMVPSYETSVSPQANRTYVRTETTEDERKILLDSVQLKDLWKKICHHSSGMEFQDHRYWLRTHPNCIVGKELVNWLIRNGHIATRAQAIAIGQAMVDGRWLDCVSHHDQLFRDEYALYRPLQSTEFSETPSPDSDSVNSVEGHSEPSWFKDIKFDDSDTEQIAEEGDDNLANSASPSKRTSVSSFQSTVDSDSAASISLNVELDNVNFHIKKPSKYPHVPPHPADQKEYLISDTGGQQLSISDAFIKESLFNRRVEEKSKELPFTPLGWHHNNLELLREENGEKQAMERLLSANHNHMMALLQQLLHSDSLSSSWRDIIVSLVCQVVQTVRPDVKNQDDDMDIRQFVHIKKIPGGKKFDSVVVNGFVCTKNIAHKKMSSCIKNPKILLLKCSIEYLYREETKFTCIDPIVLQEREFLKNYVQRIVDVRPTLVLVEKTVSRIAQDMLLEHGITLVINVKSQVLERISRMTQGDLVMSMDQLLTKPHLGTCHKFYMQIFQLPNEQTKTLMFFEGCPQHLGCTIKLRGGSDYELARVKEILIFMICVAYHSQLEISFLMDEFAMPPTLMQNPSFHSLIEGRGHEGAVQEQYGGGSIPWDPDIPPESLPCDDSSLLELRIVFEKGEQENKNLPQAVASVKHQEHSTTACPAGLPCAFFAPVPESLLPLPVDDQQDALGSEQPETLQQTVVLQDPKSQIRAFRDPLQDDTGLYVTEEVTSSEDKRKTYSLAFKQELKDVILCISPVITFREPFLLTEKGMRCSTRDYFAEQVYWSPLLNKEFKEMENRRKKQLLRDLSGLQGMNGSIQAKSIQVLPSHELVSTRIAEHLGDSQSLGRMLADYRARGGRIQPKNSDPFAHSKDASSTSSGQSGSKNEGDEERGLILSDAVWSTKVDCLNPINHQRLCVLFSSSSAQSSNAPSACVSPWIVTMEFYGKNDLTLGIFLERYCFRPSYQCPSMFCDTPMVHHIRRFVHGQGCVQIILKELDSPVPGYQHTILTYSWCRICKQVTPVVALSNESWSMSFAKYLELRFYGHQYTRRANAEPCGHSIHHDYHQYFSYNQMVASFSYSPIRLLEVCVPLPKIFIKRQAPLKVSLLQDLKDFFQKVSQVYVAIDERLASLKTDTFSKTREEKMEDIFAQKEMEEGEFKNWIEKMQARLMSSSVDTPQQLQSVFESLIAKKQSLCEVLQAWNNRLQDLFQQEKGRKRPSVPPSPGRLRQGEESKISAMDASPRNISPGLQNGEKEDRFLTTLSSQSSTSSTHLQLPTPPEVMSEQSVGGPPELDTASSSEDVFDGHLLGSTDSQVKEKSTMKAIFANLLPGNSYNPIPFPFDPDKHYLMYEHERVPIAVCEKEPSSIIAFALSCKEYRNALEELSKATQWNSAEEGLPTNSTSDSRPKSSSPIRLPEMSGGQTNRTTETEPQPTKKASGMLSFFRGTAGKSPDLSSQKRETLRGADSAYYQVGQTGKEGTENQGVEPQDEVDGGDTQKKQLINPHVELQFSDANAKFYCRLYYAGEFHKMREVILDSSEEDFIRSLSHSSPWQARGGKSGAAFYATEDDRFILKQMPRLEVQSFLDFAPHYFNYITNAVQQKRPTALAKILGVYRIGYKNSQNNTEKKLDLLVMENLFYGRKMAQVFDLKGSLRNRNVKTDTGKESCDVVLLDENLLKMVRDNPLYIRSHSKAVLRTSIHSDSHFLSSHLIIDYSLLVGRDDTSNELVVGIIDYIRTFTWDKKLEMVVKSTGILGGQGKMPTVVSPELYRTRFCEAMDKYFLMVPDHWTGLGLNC
T6 sequence (O75716 whole entry): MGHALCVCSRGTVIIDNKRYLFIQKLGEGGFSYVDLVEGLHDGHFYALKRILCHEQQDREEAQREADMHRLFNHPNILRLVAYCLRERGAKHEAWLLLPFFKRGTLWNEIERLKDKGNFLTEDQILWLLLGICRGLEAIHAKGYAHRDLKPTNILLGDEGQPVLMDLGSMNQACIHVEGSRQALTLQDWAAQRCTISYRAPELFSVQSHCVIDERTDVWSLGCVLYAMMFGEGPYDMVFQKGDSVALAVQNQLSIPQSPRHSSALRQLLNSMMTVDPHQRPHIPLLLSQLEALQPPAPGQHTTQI
T5 sequence (P49841 whole entry): as the sequence (P49841 whole entry) above

SMILES: Cc1n[nH]c2ncc(C(=O)N3CCC[C@H]3c3ccc(Cl)cc3)cc12 [Cmpd4]
IC50 (CDK19 [1]; IC50, CXCL1 mRNA expression): 0.0024 µM | IC50 (CDK19 [1]; IC50, CXCL8 mRNA expression): 0.0019 µM | IC50 (CDK19 [1]; IC50, MYC mRNA expression): 0.0014 µM | Kd (GSK3A): 0.45 µM | Toxicity in dogs (dogs): multiple and striking toxicities, including lethality | IC50 (CDK8/19; read-out: IC50, CXCL1 mRNA expression, WT; HEK293 WT; 1 h pre-treatment, then 10 ng/mL TNFα 2 h; QPCR): 0.0018 µM | IC50 (CDK8/19; read-out: IC50, CXCL8 mRNA expression, WT; HEK293 WT; 1 h pre-treatment, then 10 ng/mL TNFα 2 h; QPCR): 0.0021 µM | IC50 (CDK8/19; read-out: IC50, MYC mRNA expression, WT; HEK293 WT; 1 h pre-treatment, then 10 ng/mL TNFα 2 h; QPCR): 0.0024 µM | Kd (CDK8 [2]): 0.115 µM | Weight loss in mice [3]: detectable weight loss | IC50 (GSK3β): ~0.4 µM and 0.396 µM | IC50 (CDK8 [4]; IC50, CXCL1 mRNA expression, 19KO): 0.0032 µM | IC50 (CDK8 [4]; IC50, CXCL8 mRNA expression, 19KO): 0.0031 µM | IC50 (CDK8 [4]; IC50, MYC mRNA expression, 19KO): 0.0019 µM | Kd (CDK19 [5]): 0.094 µM | Toxicity in rats (rats): multiple and striking toxicities, including lethality | Toxicity in TU strain zebrafish embryos [6]: very strong toxicity | Toxicity in dechorionated AB zebrafish larvae [7]: severe toxicity | Kd (GSK3B): 0.19 µM

Kd (GSK3A): > 30 µM | Kd (CDK8 [2]; 11-point 3-fold serial dilution, duplicate, read-out: Kd for the inhibition of nucleotide binding, CDK8): 0.059 µM | IC50 (CDK8 [4]; read-out: IC50, CXCL1 mRNA expression, 19KO): 0.07 µM | IC50 (CDK8 [4]; read-out: IC50, CXCL8 mRNA expression, 19KO): 0.071 µM | IC50 (CDK8 [4]; read-out: IC50, MYC mRNA expression, 19KO): 0.051 µM | Kd (STK16): 2.2 µM | Kd (JNK1 (MAPK8)): 7.2 µM | Kd (PIKFYVE): 14 µM | Kd (MAP4K2): 0.57 µM
SMILES: CN1CCN(C(=O)c2ccc3cc(CCNc4ncnc5ccc(C#N)cc45)ccc3c2)CC1 [Senexin B]
Effect on basal STAT1 S727 phosphorylation in all the tested tumor cell lines [8]: inhibited | Effect on basal STAT1 S727 phosphorylation in rat neurons in culture [9]: did not detect any effect | Activity in the cell-based assay (WT, 8KO and 19KO cells) (CDK8/19): an order of magnitude less active | IC50 (CDK8/19; HEK293 WT; 1 h pre-treatment, then 10 ng/mL TNFα 2 h; QPCR; read-out: IC50, CXCL1 mRNA expression, WT): 0.068 µM | IC50 (CDK8/19; HEK293 WT; 1 h pre-treatment, then 10 ng/mL TNFα 2 h; QPCR; read-out: IC50, CXCL8 mRNA expression, WT): 0.081 µM | IC50 (CDK8/19; HEK293 WT; 1 h pre-treatment, then 10 ng/mL TNFα 2 h; QPCR; read-out: IC50, MYC mRNA expression, WT): 0.045 µM | Effect on STAT1 S727 phosphorylation, WT 293 cells under standard conditions and serum-starved [10]: inhibits STAT1 S727 phosphorylation | Effect on serum-stimulated increase of STAT1 S727 phosphorylation, WT 293 cells ([10]; serum stimulation 1 h): only weakly affected | Effect on STAT1 S727 phosphorylation, serum-starved NIH 3T3 cells ([11]; serum starvation 24 h): inhibits STAT1 S727 phosphorylation | Effect on STAT1 S727 phosphorylation, NIH 3T3 cells after addition of serum ([11]; serum stimulation 1 h): only a minor effect
